One assay concerns the target T1, Human δ-opioid (DOP) (Homo sapiens, UniProt P41143).
T1 construct: purchased Perkin Elmer Biosignal
Put plainly: Radioligand binding, human δ-opioid (DOP) membranes, FlashPlate, [3H]-Bremazocine. The note with it: compound at 10 μM; [3H]-Bremazocine. Summed up:
(§1)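 Cloned human receptor membranes were coated onto FlashPlate wells and incubated with radioligand and compound (added from a 0.5 mM DMSO daughter plate) for 1 hour at room temperature in the dark. Scintillation counting gave percent inhibition, with DMSO defining total and reference ligand defining non-specific binding.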

The target of a further assay is T2, Human κ-Opioid (KOP) (Homo sapiens, UniProt P41145).
T2 construct: purchased Perkin Elmer Biosignal
T2 sequence (P41145 whole entry): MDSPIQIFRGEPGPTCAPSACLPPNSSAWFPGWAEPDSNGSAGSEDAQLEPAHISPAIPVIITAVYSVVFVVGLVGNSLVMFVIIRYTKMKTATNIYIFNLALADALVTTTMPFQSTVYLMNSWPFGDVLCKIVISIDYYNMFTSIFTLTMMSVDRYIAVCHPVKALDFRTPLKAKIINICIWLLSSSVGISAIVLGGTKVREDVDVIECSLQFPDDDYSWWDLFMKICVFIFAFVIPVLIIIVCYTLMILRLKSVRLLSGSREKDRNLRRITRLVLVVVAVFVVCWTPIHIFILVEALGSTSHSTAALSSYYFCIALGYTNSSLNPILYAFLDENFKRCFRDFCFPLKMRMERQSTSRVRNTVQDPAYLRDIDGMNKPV
Nature of the assay: Radioligand binding, human κ-opioid (KOP) membranes, filtration, [3H]-Diprenorphine. The note with it: compound at 10 μM; [3H]-Diprenorphine. Summed up:
(§2)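 Percent inhibition of radioligand binding measured on recombinant human membranes: NK1 with [125I]-Substance P, KOP with [3H]-Diprenorphine. Incubation 1 h at room temperature, then harvest onto 0.3% PEI-soaked filters, cold Tris-HCl pH 7.4 washes and scintillation counting; non-specific binding from reference ligand wells.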

The target of the next assay is T3, Human Melanocortin (MC3) (Homo sapiens, UniProt P41968).
T3 construct: purchased Perkin Elmer Biosignal
T3 sequence (P41968 whole entry): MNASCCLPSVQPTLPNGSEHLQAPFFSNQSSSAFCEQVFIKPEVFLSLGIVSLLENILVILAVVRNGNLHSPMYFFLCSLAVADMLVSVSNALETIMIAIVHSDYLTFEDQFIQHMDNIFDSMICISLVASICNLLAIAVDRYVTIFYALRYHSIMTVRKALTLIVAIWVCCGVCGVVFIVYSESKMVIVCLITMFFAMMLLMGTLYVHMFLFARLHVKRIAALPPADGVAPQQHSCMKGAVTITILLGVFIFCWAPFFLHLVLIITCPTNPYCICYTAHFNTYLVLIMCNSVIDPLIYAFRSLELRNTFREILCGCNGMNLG
Put plainly: Radioligand binding, human melanocortin MC3 membranes, FlashPlate, [125I]-NDP-αMSH. The note with it: compound at 10 μM; [125I]-NDP-αMSH. Summed up: as §1

Another assay addresses T4, Human Melanocortin (MC4) (Homo sapiens, UniProt P32245).
T4 construct: purchased Perkin Elmer Biosignal
Put plainly: Radioligand binding, human melanocortin MC4 membranes, FlashPlate, [125I]-NDP-αMSH. The note with it: compound at 10 μM; [125I]-NDP-αMSH. A digest of the protocol: as §1

The target in another assay is T5, Human melanocortin (MC5) (Homo sapiens, UniProt P33032).
T5 construct: purchased Perkin Elmer Biosignal
T5 sequence (P33032 whole entry): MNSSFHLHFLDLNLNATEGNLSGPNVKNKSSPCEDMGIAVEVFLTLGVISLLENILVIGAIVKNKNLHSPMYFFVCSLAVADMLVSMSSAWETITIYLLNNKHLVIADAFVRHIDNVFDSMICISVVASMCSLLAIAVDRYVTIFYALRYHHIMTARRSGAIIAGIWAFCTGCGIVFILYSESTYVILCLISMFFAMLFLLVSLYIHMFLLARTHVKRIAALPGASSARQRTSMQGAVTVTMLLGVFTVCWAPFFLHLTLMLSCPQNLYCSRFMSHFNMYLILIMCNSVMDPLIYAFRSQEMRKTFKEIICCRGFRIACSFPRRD
Nature of the assay: Radioligand binding, human melanocortin MC5 membranes, FlashPlate, [125I]-NDP-αMSH. The note with it: compound at 10 μM; [125I]-NDP-αMSH. A digest of the protocol: as §1

Assay [1] deals with T6, Human melanin-concentrating hormone (MCH1) (Homo sapiens, UniProt Q99705).
T6 construct: purchased Perkin Elmer Biosignal
T6 sequence (Q99705 whole entry): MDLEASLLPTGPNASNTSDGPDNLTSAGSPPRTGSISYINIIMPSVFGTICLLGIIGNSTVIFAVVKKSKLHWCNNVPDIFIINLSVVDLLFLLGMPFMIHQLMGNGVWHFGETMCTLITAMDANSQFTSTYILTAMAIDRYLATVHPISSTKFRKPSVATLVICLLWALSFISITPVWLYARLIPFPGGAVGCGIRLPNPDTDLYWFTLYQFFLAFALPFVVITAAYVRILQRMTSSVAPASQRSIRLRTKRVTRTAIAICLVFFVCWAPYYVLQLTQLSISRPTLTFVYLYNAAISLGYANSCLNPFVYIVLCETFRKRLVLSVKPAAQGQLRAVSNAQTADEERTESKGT
Put plainly: Radioligand binding, human melanin-concentrating hormone MCH1 membranes, FlashPlate, [125I]-S36057. The note with it: compound at 10 μM; [125I]-S36057. A digest of the protocol:
as §1

Another assay concerns the target T7, Human μ-opioid (MOP) (Homo sapiens, UniProt P35372).
T7 construct: purchased Perkin Elmer Biosignal
Nature of the assay: Radioligand binding, human μ-opioid (MOP) membranes, FlashPlate, [3H]-Naloxone. The note with it: compound at 10 μM; [3H]-Naloxone. Summed up:
as §1

Another assay concerns the target T8, Human neurokinin (NK1) (Homo sapiens, UniProt P25103).
T8 construct: purchased Perkin Elmer Biosignal
Put plainly: Radioligand binding, human neurokinin NK1 membranes, filtration, [125I]-Substance P. The note with it: compound at 10 μM; [125I]-Substance P; 10 µM. Summed up: as §2

Assay [2] has as its target T9, Human neuropeptide Y (NPY-Y1) (Homo sapiens, UniProt P25929).
T9 construct: purchased Perkin Elmer Biosignal
T9 sequence (P25929 1-384): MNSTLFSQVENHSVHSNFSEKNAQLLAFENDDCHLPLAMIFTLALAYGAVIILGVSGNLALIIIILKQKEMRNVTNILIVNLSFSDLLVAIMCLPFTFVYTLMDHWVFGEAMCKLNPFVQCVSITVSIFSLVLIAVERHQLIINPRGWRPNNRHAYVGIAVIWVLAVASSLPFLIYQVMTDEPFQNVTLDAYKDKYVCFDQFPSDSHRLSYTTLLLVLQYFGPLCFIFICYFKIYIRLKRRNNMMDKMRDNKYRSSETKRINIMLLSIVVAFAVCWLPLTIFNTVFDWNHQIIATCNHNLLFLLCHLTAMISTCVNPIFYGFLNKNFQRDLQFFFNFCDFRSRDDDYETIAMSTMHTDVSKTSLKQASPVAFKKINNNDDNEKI
Put plainly: Radioligand binding, human neuropeptide Y NPY-Y1 membranes, FlashPlate, [125I]-PYY. The note with it: compound at 10 μM; [125I]-PYY. A digest of the protocol:
as §1

In another assay the target is T10, Human opioid (ORL1) (Homo sapiens, UniProt P41146).
T10 construct: purchased Perkin Elmer Biosignal
T10 sequence (P41146 whole entry): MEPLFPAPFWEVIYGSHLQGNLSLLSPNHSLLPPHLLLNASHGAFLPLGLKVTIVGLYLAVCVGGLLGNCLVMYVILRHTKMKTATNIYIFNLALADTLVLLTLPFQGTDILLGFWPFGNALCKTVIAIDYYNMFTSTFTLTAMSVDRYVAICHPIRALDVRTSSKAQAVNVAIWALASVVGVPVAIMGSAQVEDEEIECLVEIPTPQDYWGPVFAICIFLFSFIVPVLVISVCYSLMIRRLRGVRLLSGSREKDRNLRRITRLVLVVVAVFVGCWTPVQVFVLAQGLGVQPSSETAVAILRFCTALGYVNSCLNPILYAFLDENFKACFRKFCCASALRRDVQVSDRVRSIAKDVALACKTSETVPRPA
Put plainly: Radioligand binding, human opioid ORL1 membranes, FlashPlate, [125I]-Nociceptin. The note with it: compound at 10 μM; [125I]-Nociceptin. Summed up:
as §1

The target of the next assay is T11, Mouse urotensin (mUR2) (Mus musculus, UniProt Q8VIH9).
T11 construct: purchased Perkin Elmer Biosignal
T11 sequence (Q8VIH9 1-385): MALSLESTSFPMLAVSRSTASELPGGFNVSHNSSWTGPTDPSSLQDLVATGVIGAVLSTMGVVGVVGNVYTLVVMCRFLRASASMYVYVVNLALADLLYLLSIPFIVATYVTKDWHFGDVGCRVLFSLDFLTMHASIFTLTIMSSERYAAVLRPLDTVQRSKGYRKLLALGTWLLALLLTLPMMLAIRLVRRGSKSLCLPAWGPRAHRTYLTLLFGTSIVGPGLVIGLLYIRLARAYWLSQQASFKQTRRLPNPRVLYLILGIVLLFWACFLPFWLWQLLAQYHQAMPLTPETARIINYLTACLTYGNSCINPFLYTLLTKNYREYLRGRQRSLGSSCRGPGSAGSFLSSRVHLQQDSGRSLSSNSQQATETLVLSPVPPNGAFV
Nature of the assay: Radioligand binding, mouse urotensin mUR2 membranes, FlashPlate, [125I]-Urotensin II. The note with it: compound at 10 μM; [125I]-Urotensin II. A digest of the protocol: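 Cloned mouse urotensin (mUR2) receptor membranes from Perkin Elmer Biosignal were immobilized in FlashPlate microplates using a proprietary coating. Each well got 19.5 μl buffer, then 0.5 μl of DMSO, reference ligand, or compound. Adding 5 μl of [125I]-Urotensin II, diluted to 5× final concentration in binding buffer, started binding. Plates were sealed with TopSeal-A and incubated 1 hour at room temperature in the dark. Wells were counted for 30 seconds each on a TopCount after a 60-second delay, and percentage inhibition was calculated.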

T4 sequence (P32245 whole entry): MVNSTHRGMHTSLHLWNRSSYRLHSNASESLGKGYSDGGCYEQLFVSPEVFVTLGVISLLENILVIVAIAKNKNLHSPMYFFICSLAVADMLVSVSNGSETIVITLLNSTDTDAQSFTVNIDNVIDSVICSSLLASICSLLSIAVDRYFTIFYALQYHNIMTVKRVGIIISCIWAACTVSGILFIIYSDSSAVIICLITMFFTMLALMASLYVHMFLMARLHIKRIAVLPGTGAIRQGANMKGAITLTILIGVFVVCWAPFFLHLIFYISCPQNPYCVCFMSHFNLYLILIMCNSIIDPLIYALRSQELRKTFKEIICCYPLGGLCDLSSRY
T8 sequence (P25103 whole entry): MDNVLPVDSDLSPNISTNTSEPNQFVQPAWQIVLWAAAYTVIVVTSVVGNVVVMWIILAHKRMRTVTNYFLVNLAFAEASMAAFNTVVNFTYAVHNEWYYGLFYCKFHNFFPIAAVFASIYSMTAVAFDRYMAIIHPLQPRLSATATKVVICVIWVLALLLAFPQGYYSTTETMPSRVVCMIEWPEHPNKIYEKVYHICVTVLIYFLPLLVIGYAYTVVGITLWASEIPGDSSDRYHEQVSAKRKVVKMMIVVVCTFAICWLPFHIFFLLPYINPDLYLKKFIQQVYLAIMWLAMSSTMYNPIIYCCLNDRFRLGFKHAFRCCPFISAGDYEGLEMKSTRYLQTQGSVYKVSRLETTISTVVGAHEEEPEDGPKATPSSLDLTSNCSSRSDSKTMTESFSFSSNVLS
T1 sequence (P41143 whole entry): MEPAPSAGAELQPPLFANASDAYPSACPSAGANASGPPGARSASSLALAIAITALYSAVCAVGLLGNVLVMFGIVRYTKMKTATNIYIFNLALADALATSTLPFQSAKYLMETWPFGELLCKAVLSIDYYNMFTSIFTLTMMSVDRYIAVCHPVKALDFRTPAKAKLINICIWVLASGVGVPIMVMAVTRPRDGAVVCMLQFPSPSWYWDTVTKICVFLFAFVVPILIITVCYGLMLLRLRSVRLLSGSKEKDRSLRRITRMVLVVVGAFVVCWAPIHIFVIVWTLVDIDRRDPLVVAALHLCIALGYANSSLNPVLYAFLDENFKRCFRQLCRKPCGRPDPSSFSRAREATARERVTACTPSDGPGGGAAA
T7 sequence (P35372 whole entry): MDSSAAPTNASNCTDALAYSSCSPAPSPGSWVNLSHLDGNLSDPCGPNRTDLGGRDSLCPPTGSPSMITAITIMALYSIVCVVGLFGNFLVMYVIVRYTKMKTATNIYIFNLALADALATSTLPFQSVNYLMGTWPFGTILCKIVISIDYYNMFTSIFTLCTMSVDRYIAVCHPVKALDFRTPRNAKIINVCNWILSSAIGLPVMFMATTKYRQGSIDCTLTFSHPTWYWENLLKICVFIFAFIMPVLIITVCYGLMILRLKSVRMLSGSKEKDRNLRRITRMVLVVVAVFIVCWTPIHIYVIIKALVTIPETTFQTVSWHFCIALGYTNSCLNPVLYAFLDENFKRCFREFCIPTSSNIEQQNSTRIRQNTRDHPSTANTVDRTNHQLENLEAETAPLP

As to `COCC1OC(OCCc2ccccc2)C(NC(=O)CNC(=N)N)C(OCc2ccc(-c3ccccc3)cc2)C1O` (stereo not shown) [compound 548], the “A1: inhibition of radioligand binding, human δ-opioid (DOP)” value at Human δ-opioid (DOP) is on record as “− (“−” indicates less than 50% inhibition at 10 μM)”. Besides, at Human κ-Opioid (KOP), the “A2: inhibition of radioligand binding, human κ-opioid (KOP)” value is “− (“−” indicates less than 50% inhibition at 10 μM)”. For the same molecule, at Human Melanocortin (MC3), the “A3: inhibition of radioligand binding, human melanocortin (MC3)” value is “− (“−” indicates less than 50% inhibition at 10 μM)”. Moreover, the “A4: inhibition of radioligand binding, human melanocortin (MC4)” value at Human Melanocortin (MC4) is recorded as “− (“−” indicates less than 50% inhibition at 10 μM)”. At Human melanocortin (MC5), the “A5: inhibition of radioligand binding, human melanocortin (MC5)” value was “+ (“+” indicates greater than 50% inhibition at 10 μM)”. Moreover, the “A6: inhibition of radioligand binding, human melanin-concentrating hormone (MCH1)” value in assay [1] was “− (“−” indicates less than 50% inhibition at 10 μM)”. For the same molecule, the “A7: inhibition of radioligand binding, human μ-opioid (MOP)” value at Human μ-opioid (MOP) is listed as “− (“−” indicates less than 50% inhibition at 10 μM)”. For the same molecule, the “A8: inhibition of radioligand binding, human neurokinin (NK1)” value on Human neurokinin (NK1) is given as “+ (“+” indicates greater than 50% inhibition at 10 μM)”. In addition, the “A9: inhibition of radioligand binding, human neuropeptide Y (NPY-Y1)” value in [2] is reported as “− (“−” indicates less than 50% inhibition at 10 μM)”. Moreover, at Human opioid (ORL1), the “A10: inhibition of radioligand binding, human opioid (ORL1)” value is “− (“−” indicates less than 50% inhibition at 10 μM)”. The “A11: inhibition of radioligand binding, mouse urotensin (mUR2)” value at Mouse urotensin (mUR2) was “− (“−” indicates less than 50% inhibition at 10 μM)”.
With `COCC1OC(OCCc2ccccc2)C(NC(=O)CNC(=N)N)C(OCc2ccc(-c3ccccc3)cc2)C1O` (stereo not shown) [compound 549], the “A1: inhibition of radioligand binding, human δ-opioid (DOP)” value at Human δ-opioid (DOP) is “− (“−” indicates less than 50% inhibition at 10 μM)”. For the same molecule, the “A2: inhibition of radioligand binding, human κ-opioid (KOP)” value on Human κ-Opioid (KOP) is on record as “− (“−” indicates less than 50% inhibition at 10 μM)”. The “A3: inhibition of radioligand binding, human melanocortin (MC3)” value on Human Melanocortin (MC3) is listed as “− (“−” indicates less than 50% inhibition at 10 μM)”. Also, at Human Melanocortin (MC4), the “A4: inhibition of radioligand binding, human melanocortin (MC4)” value is reported as “− (“−” indicates less than 50% inhibition at 10 μM)”. Besides, at Human melanocortin (MC5), the “A5: inhibition of radioligand binding, human melanocortin (MC5)” value was “+ (“+” indicates greater than 50% inhibition at 10 μM)”. Moreover, in assay [1], the “A6: inhibition of radioligand binding, human melanin-concentrating hormone (MCH1)” value was “− (“−” indicates less than 50% inhibition at 10 μM)”. The “A7: inhibition of radioligand binding, human μ-opioid (MOP)” value at Human μ-opioid (MOP) is on record as “− (“−” indicates less than 50% inhibition at 10 μM)”. Further, on Human neurokinin (NK1), the “A8: inhibition of radioligand binding, human neurokinin (NK1)” value is given as “− (“−” indicates less than 50% inhibition at 10 μM)”. For the same molecule, in assay [2], the “A9: inhibition of radioligand binding, human neuropeptide Y (NPY-Y1)” value is “− (“−” indicates less than 50% inhibition at 10 μM)”. Further, the “A10: inhibition of radioligand binding, human opioid (ORL1)” value on Human opioid (ORL1) is given as “− (“−” indicates less than 50% inhibition at 10 μM)”. For the same molecule, the “A11: inhibition of radioligand binding, mouse urotensin (mUR2)” value on Mouse urotensin (mUR2) is reported as “− (“−” indicates less than 50% inhibition at 10 μM)”.
